Measured values reported in PubChem BioAssay AID276 (DTP/NCI, 2004).
Where “and” joins values, the source holds several entries; their conditions need not be identical. Equal entries are not always repeated. Inconclusive results and toxic doses are left out. Rule for the calls: active = survival T/C of 150% or more; inactive = T/C below 125% in these data.

Test system: B6C3F1 mice, Lewis lung carcinoma iv, survival T/C
Test: NCI In Vivo Anticancer Drug Screen. Data for tumor model Lewis Lung Carcinoma (intravenous) in B6C3F1 mice
Settings: endpoint: median survival time, schedule: Q01DX009 (ip), higher = longer survival
How it was run: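 Transplantable tumor in mice; compound treated vs vehicle controls; read-out survival; value = treated/control (T/C).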

[1] = dose: 6.25 mg/kg/injection, vehicle: saline with Tween-80
[2] = dose: 12.5 mg/kg/injection, vehicle: saline with Tween-80
[3] = dose: 25.0 mg/kg/injection, vehicle: saline with Tween-80
[4] = dose: 50.0 mg/kg/injection, vehicle: saline with Tween-80
[5] = dose: 100.0 mg/kg/injection, vehicle: saline with Tween-80
[6] = dose: 200.0 mg/kg/injection, vehicle: saline with Tween-80
[7] = dose: 3.12 mg/kg/injection, vehicle: saline with Tween-80
[8] = dose: 25.0 mg/kg/injection, vehicle: Klucel (hydroxypropylcellulose) (HPC)
[9] = dose: 50.0 mg/kg/injection, vehicle: Klucel (hydroxypropylcellulose) (HPC)
[10] = dose: 100.0 mg/kg/injection, vehicle: Klucel (hydroxypropylcellulose) (HPC)
[11] = dose: 200.0 mg/kg/injection, vehicle: Klucel (hydroxypropylcellulose) (HPC)
[12] = dose: 50.0 mg/kg/injection, vehicle: saline
[13] = dose: 100.0 mg/kg/injection, vehicle: saline
[14] = dose: 400.0 mg/kg/injection, vehicle: saline
[15] = dose: 12.5 mg/kg/injection, vehicle: saline
[16] = dose: 25.0 mg/kg/injection, vehicle: saline
[17] = dose: 200.0 mg/kg/injection, vehicle: saline

Measured: T/C

O=C1[C@H]2CCC[C@H]2[C@H]2CCC[C@@H]12
inactive: [1] 95 % of control | [2] 104 % of control | [3] 98 % of control | [4] 95 % of control | [5] 91 % of control | [6] 102 % of control

CN(Cc1cnc2nc(N)nc(N)c2n1)c1ccc(C(=O)N[C@@H](CCC(=O)O)C(=O)O)cc1
inactive: dose: 1.0 mg/kg/injection, vehicle: sodium bicarbonate 102 % of control | dose: 2.0 mg/kg/injection, vehicle: sodium bicarbonate 107 % of control and 88 % of control | dose: 4.0 mg/kg/injection, vehicle: sodium bicarbonate 96 % of control and 102 % of control

Nc1nc2ccc(NCc3ccc(C(=O)NC(CCC(=O)O)C(=O)O)cc3)cc2c(=O)[nH]1 (configuration not stated)
inactive: [1] 111 % of control | [2] 97 % of control | [3] 100 % of control | [4] 116 % of control | [5] 119 % of control

Nc1cc2c3c(cccc3c1)C(=O)N(CCN1CCCC1)C2=O
inactive: [7] 105 % of control | [1] 105 % of control | [2] 105 % of control | [3] 109 % of control

COc1cccc(C2NC(=O)c3c(n[nH]c3N)S2)c1O (configuration not stated)
inactive: [2] 114 % of control | [3] 102 % of control | [4] 122 % of control | [5] 99 % of control | [6] 109 % of control

CCS/C(SC)=C(/c1ccccc1)[P+](c1ccccc1)(c1ccccc1)c1ccccc1
inactive: dose: 0.12 mg/kg/injection, vehicle: Klucel (hydroxypropylcellulose) (HPC) 106 % of control | dose: 0.25 mg/kg/injection, vehicle: Klucel (hydroxypropylcellulose) (HPC) 108 % of control | dose: 0.5 mg/kg/injection, vehicle: Klucel (hydroxypropylcellulose) (HPC) 101 % of control | dose: 1.0 mg/kg/injection, vehicle: Klucel (hydroxypropylcellulose) (HPC) 104 % of control | dose: 1.5 mg/kg/injection, vehicle: Klucel (hydroxypropylcellulose) (HPC) 100 % of control | dose: 2.0 mg/kg/injection, vehicle: Klucel (hydroxypropylcellulose) (HPC) 93 % of control

C[CH2][Sn]([CH2]C)([CH2]C(=O)OC)[CH2]C(=O)OC
inactive: dose: 0.78 mg/kg/injection, vehicle: saline with Tween-80 102 % of control | dose: 1.56 mg/kg/injection, vehicle: saline with Tween-80 104 % of control | [7] 99 % of control | [1] 101 % of control | [2] 104 % of control and 105 % of control

O=c1nc(-c2ccco2)sc(=O)[nH]1
inactive: dose: 12.0 mg/kg/injection, vehicle: Klucel (hydroxypropylcellulose) (HPC) 112 % of control | [8] 96 % of control | [9] 105 % of control | [10] 116 % of control | [11] 104 % of control

O=[N+]([O-])c1ccc(Sc2ccncn2)c([N+](=O)[O-])c1
inactive: [1] 90 % of control | [2] 102 % of control | [3] 95 % of control | [4] 86 % of control | [5] 99 % of control

COc1cc(NCc2ccc3nc(N)nc(N)c3c2C)cc(OC)c1OC
inactive: dose: 3.12 mg/kg/injection, vehicle: water 94 % of control | dose: 6.25 mg/kg/injection, vehicle: water 102 % of control | dose: 12.5 mg/kg/injection, vehicle: water 97 % of control and 124 % of control | dose: 25.0 mg/kg/injection, vehicle: water 101 % of control and 111 % of control | dose: 50.0 mg/kg/injection, vehicle: water 113 % of control and 117 % of control

O=c1n[n+]([O-])ccn1C1OC(CO)C(O)C1O (configuration not stated)
inactive: [12] 117 % of control | [13] 107 % of control | [14] 89 % of control

CCOC(=O)c1[nH]c2cccc3c2c1CC(Br)C3=O (configuration not stated)
inactive: dose: 12.0 mg/kg/injection, vehicle: saline with Tween-80 102 % of control | [3] 100 % of control | [4] 99 % of control

C[C@]12CCC(=O)C=C1CC[C@@H]1[C@@H]2[C@@H](O)C[C@@]2(C)[C@H]1CC[C@]2(O)C(=O)CO
inactive: dose: 12.5 mg/kg/injection, vehicle: Klucel (hydroxypropylcellulose) (HPC) 110 % of control | [8] 107 % of control | [9] 97 % of control | [10] 106 % of control | [11] 100 % of control

Cn1cnc([N+](=O)[O-])c1SCC(=O)O
inactive: [15] 100 % of control | [16] 107 % of control | [12] 103 % of control | [13] 93 % of control | [17] 104 % of control | [14] 96 % of control

O=C1C(O)=C(c2ccccc2)C(=O)C(O)=C1c1ccccc1
inactive: dose: 1.56 mg/kg/injection, vehicle: saline 98 % of control | dose: 3.12 mg/kg/injection, vehicle: saline 98 % of control and 117 % of control | [1] 99 % of control | dose: 6.25 mg/kg/injection, vehicle: saline 99 % of control and 118 % of control | [2] 101 % of control | [15] 108 % of control and 113 % of control | [3] 101 % of control | [16] 98 % of control and 104 % of control | [4] 102 % of control | [12] 94 % of control and 99 % of control

OCC12COCN1COC2
inactive: [15] 103 % of control and 104 % of control | [16] 98 % of control and 101 % of control | [12] 100 % of control and 106 % of control | [13] 97 % of control and 102 % of control | [17] 98 % of control | [14] 104 % of control and 112 % of control
